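Briefly, cells in 96-well plates were exposed to five compound concentrations for 48 h, and endpoints were estimated by linear interpolation. At the TGI there is no net growth.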
Tests used:
Experiment in all cases: inhibition of tumour cell growth, NCI panel, 48 h
[1] = test system: DLD-1 colon
[2] = test system: MALME-3M melanoma
[3] = test system: M19-MEL melanoma
[4] = test system: OVCAR-4 ovarian
[5] = test system: NCI-H226 lung
[6] = test system: NCI-H460 lung
[7] = test system: PC-3 prostate
[8] = test system: SR leukemia
[9] = test system: OVCAR-3 ovarian
[10] = test system: NCI-H23 lung

O=C1C=C(Br)C(=O)C12CCc1ccccc12 (centres undefined)
TGI [1]: 28.8 µM
TGI [2]: 29.5 µM
TGI [3]: 36.5 µM
TGI [4]: 52.4 µM
TGI [5]: 35.8 µM
TGI [6]: 48 µM
TGI [7]: 32.5 µM
TGI [8]: 17.3 µM
TGI [9]: 41.8 µM
TGI [10]: 44.6 µM

COc1cccc(NC(=O)CC(=O)N2N=C(N(CCC#N)c3ccccc3C)CC2c2ccccc2)c1 (centres undefined)
TGI [1]: > 100 µM
TGI [2]: > 100 µM
TGI [3]: > 100 µM
TGI [4]: > 100 µM
TGI [5]: > 100 µM
TGI [6]: > 100 µM
TGI [8]: > 100 µM
TGI [9]: > 100 µM
TGI [10]: > 100 µM

From PubChem BioAssay (NCI)
